{
  "source": "patent US20220362330A1",
  "about": "“Compositions and Methods for Increasing Epithelial Barrier Function” (The Board of Trustees of the Leland Stanford Junior …, priority 2019, published 2022)",
  "key": {"genital mucosal tissue": {"tested_on": "genital mucosal tissue", "assay": "Entry of CFSE-labeled splenocytes into genital mucosal tissue", "assay_type": "in vivo", "settings": "CFSE-labeled splenocytes ivag, 12 hours; vs estrus-stage mice", "experimental": "Estrus-stage or DMPA-treated mice were administered CFSE-labeled splenocytes intravaginally and euthanized 12 hours later. Relative leukocyte infiltration of vaginal mucosal tissue in estrus-stage vs. DMPA-treated mice was evaluated by confocal microscopy.\nThese findings established progestin mediated increases in mucosal permeability promote both passive entry of low molecular weight molecules and incursion of larger-sized cells that are more reliant on energy-dependent processes."}, "EphrinA3 (EFNA3)": {"tested_on": "EphrinA3 (EFNA3)", "assay": "EphrinA3 gene and protein expression in vaginal tissue (RT-PCR, immunohistochemistry)", "assay_type": "in vivo", "settings": "DMPA-treated vs estrus-stage mice", "excerpt": "Vaginal tissue was harvested from mice in estrus, DMPA-treated mice, and mice treated with DMPA and Premarin vaginal cream were placed in RNAlater® for RNA isolation or embedded in formaldehyde for histology analysis. FIG. 5A is a bar graph showing gene expression for Ephrin A3 (Efna3) relative to pyruvate carboxylase, a housekeeping gene.\nTo corroborate microarray results, EphrinA3 gene and protein expression were compared in estrus-stage and DMPA-treated mice. To also evaluate effects of exogenous estrogen, other DMPA-treated mice were treated intravaginally with the estrogen cream Premarin. […] The vaginal tissue was assessed for DSG1 protein levels using immunofluorescent staining and confocal microscopy.\nHuman ectocervical and murine vaginal tissues were immediately immersed in 1 mL of RNAlater® (Qiagen), stored for 24 h at 4° C., and stored long-term at −80° C. RNA isolated using the RNeasy Lipid Tissue Kit (Qiagen) using manufacturer's instructions was re-suspended in nuclease-free water and quantified using a NanoDrop spectrophotometer (Thermo Scientific). […] To define relative gene expression, 100 ng of RNA was mixed with TaqMan® RNA-to-Ct™ 1-Step Kit and adequate primer (final volume of 10 μL/well) using manufacturer's instructions (Life Technologies). qRT-PCR was performed using a Quantstudio3 Thermal Cycler, and data analyzed via Quanstudio Software (Applied Biosystems). […]"}},
  "note": "“Also recorded” adds a separate entry of the source.",
  "data": [
    {"smiles": "CC(=O)O[C@]1(C(C)=O)CC[C@H]2[C@@H]3C[C@H](C)C4=CC(=O)CC[C@]4(C)[C@H]3CC[C@@]21C", "note": "[DMPA]", "values": [
      {"measurement": "leukocyte entry into genital tissue", "setting": "genital mucosal tissue", "result": "facilitates entry of leukocytes into genital mucosal tissue; also recorded: promoted leukocyte entry into genital tissue"},
      {"measurement": "expression of EphrinA3 in vaginal mucosal tissue", "setting": "EphrinA3 (EFNA3)", "result": "dramatically impair expression; also recorded: reduces EFNA3 expression"}
    ]}
  ]
}
